Assay results: patent publication US20030065035A1, “Novel stilbene derivative crystal and method for producing the same” (AJINOMOTO CO. INC, priority 2000, published 2003)

Columns and labels:
[1] = X ray powder diffraction pattern of the crystal under humidity (crystal structure stability); assay type: physicochemical; conditions: relative humidity of 80% or less
[2] = Water adsorption isotherm (water adsorption level, BELSORP-18 analyzer); assay type: physicochemical; conditions: constant temperature of 25° C.; crystal dried overnight in vacuum at 60° C.; results in FIGS. 3 and 4; hydrochloride
Procedure: Preparation of Water Adsorption Isotherm (Water Adsorption Constant Temperature Line):
After the Type IV crystal recovered above was dried overnight in vacuum at 60° C., the water adsorption level of the crystal was measured at a constant temperature of 25° C. by a fully automatic water adsorption analyzer (BELSORP-18: Nippon Bell K.K.) (see Mitsuiki et al., J. Agric. Food Chem., vol.46, No. 9, pages 3528-3534 (1998)).
The water adsorption level of the Type I crystal was also measured in the same manner as above.

| SMILES | change of X ray powder diffraction pattern / crystal structure [1] | water (water vapor) adsorption level versus relative humidity [2] |
| --- | --- | --- |
| COc1ccc(/C=C\c2cc(OC)c(OC)c(OC)c2)cc1NC(=O)[C@@H](N)CO.Cl [Type IV crystal, (Z)-N-[2-methoxy-5-[2-(3,4,5-trimethoxyphenyl)vinyl]phenyl]-L-serinamide hydrochloride] | did not change | adsorbed much less water up to around a relative humidity of 80% |
| COc1ccc(/C=C\c2cc(OC)c(OC)c(OC)c2)cc1NC(=O)[C@@H](N)CO.Cl [Type I crystal, (Z)-N-[2-methoxy-5-[2-(3,4,5-trimethoxyphenyl)vinyl]phenyl]-L-serinamide hydrochloride, reference compound] |  | adsorbed water in a degree roughly proportional to relative humidity |
